Laboratory results reported in US7205410B2, “4-(aminomethyl)-piperidine benzamides for treating gastrointestinal disorders” (Janssen Pharmaceutica, N.V., priority 1998, dated 2007).

Assays:
5HT4 = target: T1, 5HT4 (Rattus norvegicus, UniProt Q62758); test: 5HT4 antagonism in rat oesophageal tunica muscularis mucosae; assay type: cell-based; conditions: 5HT4 antagonistic data, isolated rat oesophageal tunica muscularis mucosae, method of Baxter et al.; for Kb: read-out: pA2 (converted)
T1 construct: 5HT4 Antagonism in Rat Oesophageal Tunica Muscularis Mucosae; from tissue; host or cells: rat oesophageal tunica muscularis mucosae
T1 sequence (Q62758 whole entry): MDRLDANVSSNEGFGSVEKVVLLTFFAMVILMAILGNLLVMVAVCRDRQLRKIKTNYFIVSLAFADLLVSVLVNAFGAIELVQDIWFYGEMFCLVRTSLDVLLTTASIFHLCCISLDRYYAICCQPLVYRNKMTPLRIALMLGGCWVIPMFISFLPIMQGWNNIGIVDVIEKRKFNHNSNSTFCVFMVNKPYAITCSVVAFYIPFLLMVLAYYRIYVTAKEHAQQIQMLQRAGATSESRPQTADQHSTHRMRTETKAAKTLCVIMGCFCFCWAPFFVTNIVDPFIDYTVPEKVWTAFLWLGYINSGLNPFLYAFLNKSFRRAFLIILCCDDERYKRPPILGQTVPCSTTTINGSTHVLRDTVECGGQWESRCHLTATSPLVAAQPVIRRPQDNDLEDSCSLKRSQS
Method: 5HT4 Antagonism in Rat Oesophageal Tunica Muscularis Mucosae
The 5HT4 antagonistic potence of the present compounds was measured as described in Baxter G. S. et. al, Naunyn-Schmiedeberg's Arch. Pharmacol., 343, 439-446 ([…]).
The pA2 value is calculated as follows: [formula]

pA2 (5HT4)	other results	Structure (SMILES)
9.81	–	O=C(NCC1CCN(CCCO)CC1O)c1cc(Cl)cc2c1OCCC2 (stereo not shown) [Compound 39]
<8	–	Cl.O=C(O)CCCN1CCC(CNC(=O)c2cc(Cl)cc3c2OCC3)C(O)C1 (stereo not shown) [Compound 32]
9.5	–	COC(=O)CCCN1CCC(CNC(=O)c2cc(Cl)cc3c2OCCC3)C(O)C1 (stereo not shown) [Compound 53]
˜7.5	–	CC(=O)CCCN1CCC(O)(CNC(=O)c2cc(Cl)cc3c2OCCCO3)CC1.O [Compound 180]
8.5	–	CCCCN1CCC(CNC(=O)c2cc(Cl)cc3c2OCCCO3)C(OC)C1.O=C(O)C(=O)O (stereo not shown) [Compound 130]
10.5	–	CCCCN1CCC(CNC(=O)c2cc(Cl)cc3c2OCC3)C(O)C1 (stereo not shown) [Compound 2]
<8	–	O=C(NCC1(O)CCN(CCC2OCCCO2)CC1)c1cc(Cl)cc2c1OCCO2 [Compound 117]
–	Kb (5HT4): 28.2 pM	Cc1nccnc1NCCCN1CC[C@@H](CNC(=O)c2cc(Cl)cc3c2OCCO3)[C@H](O)C1 (racemic) [Compound 84, (±)-(trans)-7-chloro-2,3-dihydro-N-[[3-hydroxy-1-[3-[(3-methyl-2-pyrazinyl)amino]propyl]-4-piperidinyl]methyl]-1,4-benzodioxin-5-carboxamide]
9.78	–	N#CCCCN1CCC(CNC(=O)c2cc(Cl)cc3c2OCCCO3)C(O)C1 (stereo not shown) [Compound 126]
–	Kb (5HT4): 363 pM	CC(=O)CCCN1CC[C@@H](CNC(=O)c2cc(Cl)cc3c2OCCO3)[C@H](O)C1 (racemic) [Compound 65, (±)-(trans)-7-chloro-2,3 dihydro-N-[[3-hydroxy-1-(4-oxopentyl)-4-piperidinyl]methyl]-1,4-benzodioxin-5-carboxamide]
9.1	–	Cl.O=C(O)CCCN1CCC(CNC(=O)c2cc(Cl)cc3c2OCCCO3)C(O)C1 (stereo not shown) [Compound 146]
8.35	–	O=C(NCC1CCN(CCCOc2ccc(F)cc2)CC1O)c1cc(Cl)cc2c1OCC2 (stereo not shown) [Compound 13]
10.4	–	O=C(NCC1CCN(CCCO)CC1O)c1cc(Cl)cc2c1OCCCO2 (stereo not shown) [Compound 144]
˜8	–	CC(C)n1ccn(CCN2CCC(O)(CNC(=O)c3cc(Cl)cc4c3OCCO4)CC2)c1=O.O=C(O)C(=O)O [Compound 116]
10.1	–	O=C(NCC1CCN(CCCO)CC1O)c1cc(Cl)cc2c1OCCCCO2 (stereo not shown) [Compound 192]
9.8	–	CCCCN1CCC(CNC(=O)c2cc(Cl)cc3c2OCCC3)C(O)C1 (stereo not shown) [Compound 36]
<8	–	CS(=O)(=O)CCCN1CCC(O)(CNC(=O)c2cc(Cl)cc3c2OCCCO3)CC1.O [Compound 169]
8.44	–	O=C(CN1CCC(CNC(=O)c2cc(Cl)cc3c2OCCO3)C(O)C1)c1ccccc1.O=C(O)C(=O)O (stereo not shown) [Compound 78]
9.72	–	COCCCN1CCC(CNC(=O)c2cc(Cl)cc3c2OCCCO3)C(O)C1 (stereo not shown) [Compound 120]
9.49	–	CCCCN1CCC(CNC(=O)c2cc(Cl)cc3c2OCCO3)C(O)C1.O=C(O)C(=O)O (stereo not shown) [Compound 63]
<7	–	COCCCN1CCC(O)(CNC(=O)c2cc(Cl)cc3c2OCCO3)CC1.O=C(O)C(=O)O [Compound 101]
9.9	–	CC(=O)CCCN1CCC(CNC(=O)c2cc(Cl)cc3c2OCCCO3)C(O)C1 (stereo not shown) [Compound 121]
9.5	–	O=C(CN1CCC(CNC(=O)c2cc(Cl)cc3c2OCCC3)C(O)C1)c1ccccc1.O=C(O)C(=O)O (stereo not shown) [Compound 42]

pA2 (5HT4)	other results	Structure (SMILES)
8.6	–	COC1CN(CCCC(C)=O)CCC1CNC(=O)c1cc(Cl)cc2c1OCCCO2.O=C(O)C(=O)O (stereo not shown) [Compound 139]
8.3	–	O=C(NCC1CCN(CCOCCO)CC1O)c1cc(Cl)cc2c1OCCCCO2 (stereo not shown) [Compound 190]
9.26	–	COCCCN1CCC(CNC(=O)c2cc(Cl)cc3c2OCCO3)C(O)C1.O=C(O)C(=O)O (stereo not shown) [Compound 66]
–	Kb (5HT4): 302 pM	O=C(NC[C@@H]1CCN(CCNc2nccc(O)n2)C[C@H]1O)c1cc(Cl)cc2c1OCCO2 (relative stereo) [Compound 85, (trans)-7-chloro-2,3-dihydro-N-[[3-hydroxy-1-[2-[(4-hydroxy-2 pyrimidinyl)amino]-ethyl]-4-piperidinyl]methyl]-1,4-benzodioxin-5-carboxamide monohydrate]
9.8	–	Cl.O=C(O)CCCN1CCC(CNC(=O)c2cc(Cl)cc3c2OCCC3)C(O)C1 (stereo not shown) [Compound 54]
9.5	–	O=C(NCC1CCN(CCOCCO)CC1O)c1cc(Cl)cc2c1OCCC2.O=C(O)C(=O)O (stereo not shown) [Compound 52]
9.2	–	COC1CN(CCCOc2ccc(F)cc2)CCC1CNC(=O)c1cc(Cl)cc2c1OCCO2.O=C(O)C(=O)O (stereo not shown) [Compound 88]
9.6	–	O=C(NCC1CCN(CCOCCO)CC1O)c1cc(Cl)cc2c1OCC2 (stereo not shown) [Compound 29]
8.2	–	CCCCN1CCC(CNC(=O)c2cc(Cl)cc3c2OCCO3)C(OC)C1.O=C(O)C(=O)O (stereo not shown) [Compound 86]
<8	–	COC1CN(Cc2ccccc2)CCC1CNC(=O)c1cc(Cl)cc2c1OCCO2 (stereo not shown) [Compound 89]
<8	–	CCCCN1CCC(O)(CNC(=O)c2cc(Cl)cc3c2OCCO3)CC1.Cl [Compound 100]
9.7	–	Cl.O=C(NCC1CCN(CCOCCO)CC1O)c1cc(Cl)cc2c1OCCO2 (stereo not shown) [Compound 92]
8.53	–	CCCCN1CCC(CNC(=O)c2cc(Cl)cc3c2OCC3)C(O)C1 (stereo not shown) [Compound 1]
<8	–	CS(=O)(=O)CCCN1CCC(O)(CNC(=O)c2cc(Cl)cc3c2OCCO3)CC1 [Compound 103]
9.24	–	Cl.O=C(O)CCCN1CCC(CNC(=O)c2cc(Cl)cc3c2OCCO3)C(O)C1 (stereo not shown) [Compound 94]
8.83	–	O=C(NCC1CCN(CCCOc2ccc(F)cc2)CC1O)c1cc(Cl)cc2c1OCCO2.O=C(O)C(=O)O (stereo not shown) [Compound 80]
<8	–	N#CCCCN1CCC(O)(CNC(=O)c2cc(Cl)cc3c2OCCCO3)CC1.O=C(O)C(=O)O [Compound 167]
8.07	–	COCCCN1CCC(CNC(=O)c2cc(Cl)cc3c2OCC3)C(O)C1 (stereo not shown) [Compound 3]
10.5	–	N#CCCCN1CCC(CNC(=O)c2cc(Cl)cc3c2OCCCCO3)C(O)C1.O=C(O)C(=O)O (stereo not shown) [Compound 188]
–	Kb (5HT4): 100 pM; melting point: 112 °C	CCCCN1CC[C@@H](CNC(=O)c2cc(Cl)cc3c2OCCO3)[C@H](O)C1 (racemic) [Compound 64, (±)-(trans)-N-[(1-butyl-3-hydroxy-4-piperidinyl)methyl]-7-chloro-2,3-dihydro-1,4-benzodioxin-5-carboxamide]
9	–	Cl.O=C(O)CCCN1CCC(CNC(=O)c2cc(Cl)cc3c2OCCCCO3)C(O)C1 (stereo not shown) [Compound 194]
<8	–	O=C(NCC1(O)CCN(CCOCCO)CC1)c1cc(Cl)cc2c1OCCO2.O=C(O)/C=C\C(=O)O [Compound 107]
10.2	–	O=C(NCC1CCN(Cc2ccccc2)CC1O)c1cc(Cl)cc2c1OCC2 (stereo not shown) [Compound 12]

pA2 (5HT4)	other results	Structure (SMILES)
<8	–	CC(=O)CCCN1CCC(O)(CNC(=O)c2cc(Cl)cc3c2OCCO3)CC1 [Compound 106]
8.4	–	O=C(CN1CCC(CNC(=O)c2cc(Cl)cc3c2OCC3)C(O)C1)c1ccccc1 (stereo not shown) [Compound 15]
10.65	–	CCCCN1CCC(CNC(=O)c2cc(Cl)cc3c2OCCCO3)C(O)C1 (stereo not shown) [Compound 119]
>8	–	COCCCN1CCC(CNC(=O)c2cc(Cl)cc3c2OCCCO3)C(OC)C1.O=C(O)C(=O)O (stereo not shown) [Compound 129]
7.93	–	O=C(NCC1CCN(CCCOc2ccc(F)cc2)CC1O)c1cc(Cl)cc2c1OCCO2 (stereo not shown) [Compound 79]
8.46	–	COCCCN1CCC(CNC(=O)c2cc(Cl)cc3c2OCCO3)C(OC)C1.O=C(O)C(=O)O (stereo not shown) [Compound 87]
9.6	–	CS(=O)(=O)NCCN1CCC(CNC(=O)c2cc(Cl)cc3c2OCC3)C(O)C1 (stereo not shown) [Compound 17]
9.22	–	N#CCCCN1CCC(CNC(=O)c2cc(Cl)cc3c2OCCO3)C(O)C1.O=C(O)C(=O)O (stereo not shown) [Compound 74]
9.4	–	COC(=O)CCCN1CCC(CNC(=O)c2cc(Cl)cc3c2OCC3)C(O)C1 (stereo not shown) [Compound 31]
9.8	–	O=C(NCC1CCN(CCCOc2ccc(F)cc2)CC1O)c1cc(Cl)cc2c1OCCC2 (stereo not shown) [Compound 43]
<8	–	CCCCN1CCC(O)(CNC(=O)c2cc(Cl)cc3c2OCCCO3)CC1.O=C(O)C(=O)O [Compound 171]
9.4	–	COC(=O)CCCN1CCC(CNC(=O)c2cc(Cl)cc3c2OCCO3)C(O)C1 (stereo not shown) [Compound 93]
9.04	–	O=C(NCC1CCN(CCCO)CC1O)c1cc(Cl)cc2c1OCCO2 (stereo not shown) [Compound 68]
9.19	–	O=C(NCC1CCN(Cc2ccccc2)CC1O)c1cc(Cl)cc2c1OCCO2 (stereo not shown) [Compound 77]
9.5	–	CCCCN1CCC(CNC(=O)c2cc(Cl)cc3c2OCCCO3)C(OC)C1.O=C(O)C(=O)O (stereo not shown) [Compound 131]
<8	–	COCCCN1CCC(O)(CNC(=O)c2cc(Cl)cc3c2OCCCO3)CC1.O=C(O)C(=O)O [Compound 168]
9.7	–	O=C(NCC1CCN(Cc2ccccc2)CC1O)c1cc(Cl)cc2c1OCCC2 (stereo not shown) [Compound 41]
8.5	–	COC1CN(Cc2ccccc2)CCC1CNC(=O)c1cc(Cl)cc2c1OCCCO2 (stereo not shown) [Compound 132]
8.1	–	COC1CN(CCCC(C)=O)CCC1CNC(=O)c1cc(Cl)cc2c1OCCCO2.O=C(O)C(=O)O (stereo not shown) [Compound 135]
9.4	–	CCCCN1CCC(CNC(=O)c2cc(Cl)cc3c2OCCCCO3)C(O)C1.O (stereo not shown) [Compound 182]
–	Kb (5HT4): 372 pM	COCCCN1CC[C@@H](CNC(=O)c2cc(Cl)cc3c2OCCO3)[C@H](O)C1 (racemic) [Compound 67, (±)-(trans)-7-chloro-2,3-dihydro-N-[[3-hydroxy-1-(3-methoxy-propyl)-4-piperidinyl]methyl]-1,4-benzodioxin-5-carboxamide]
8.76	–	O=C(NCC1CCN(Cc2ccccc2)CC1O)c1cc(Cl)cc2c1OCC2 (stereo not shown) [Compound 11]
9.2	–	O=C(NCC1CCN(CCCOc2ccc(F)cc2)CC1O)c1cc(Cl)cc2c1OCC2 (stereo not shown) [Compound 14]
